Tests used:
[1] = test system: EAAT2; experiment: In vivo assay in wild-type mice, EAAT2 protein levels in forebrain gliosomes by Western blot; conditions: C57BL/6J mice, 40 mg/kg oral gavage, relative to vehicle controls
Procedure: In vivo assay in wild-type mice. Example compounds that were capable of increasing EAAT2 protein expression in cultured astrocytes were further evaluated in C57BL/6J mice. Mice were treated by oral gavage with the compound at 40 mg/kg. At 24 hr post-treatment, mice were euthanized and forebrains were harvested for the gliosome preparation (Dunkley et al., Nat Protoc 3, 1718-1728). Gliosomes are enriched with astrocytic processes, and majority of EAAT2 is localized in astrocytic processes (gliosomes). EAAT2 protein levels in gliosomes were determined by Western blot analysis.

[2] = test system: human EAAT2; experiment: In vitro assay in primary astrocyte cultures (PA-EAAT2 cells), EAAT2 protein levels by Western blot; format: cell-based; conditions: for In vitro - fold increase for EAAT2 in cultured astrocytes at indicated concentration (maximum activity): PA-EAAT2 cells treated 24 hr at 0.25-25 μM, relative to DMSO controls, value at the concentration that reaches maximum activity; for indicated concentration that reaches maximum activity (EAAT2 increase in cultured astrocytes): PA-EAAT2 cells, 24 hr, tested at 0.25, 0.5, 1, 2.5, 5, 10 and 25 μM
Procedure: In vitro assay in primary astrocyte cultures. Example compounds were initially evaluated in PA-EAAT2 cells, a primary astrocyte stably expressing human EAAT2 mRNAs (Kong et al., J Clin Invest. 124:1255-67). Cells were treated with the example compounds at 0.25 μM, 0.5 μM, 1 μM, 2.5 μM, 5 μM, 10 μM, and 25 μM for 24 hr and then harvested for measuring EAAT2 protein levels by Western blot analysis.

Row | SMILES | In vivo - fold increase for EAAT2 in mouse forebrain at 24 hr post treatment (40 mg/kg by PO) [1] | In vitro - fold increase for EAAT2 in cultured astrocytes at indicated concentration (maximum activity) [2] | indicated concentration that reaches maximum activity (EAAT2 increase in cultured astrocytes) [2]
1 | CN(C)CCOc1ncc(-c2ccccn2)cn1 [Example 157, N,N-dimethyl-2-((5-(pyridin-2-yl)pyrimidin-2-yl)oxy)ethan-1-amine] | 1.37 fold | 1.54 fold | (1 μM)
2 | O=C(Nc1ccc(-c2ccccn2)nc1)c1ccc(F)cc1 [Example 19, N-([2,2′-bipyridin]-5-yl)-4-fluorobenzamide] | 1.41 fold | 1.97 fold | (1 μM)
3 | O=C(Nc1cnc(-c2ccccn2)cn1)c1ccccc1 [Example 33, N-(5-(pyridin-2-yl)pyrazin-2-yl)benzamide] | no increase | no increase | –
4 | O=C(Nc1cnc(-c2ccccn2)nc1)c1ccccc1 [Example 63, N-(2-(pyridin-2-yl)pyrimidin-5-yl)benzamide] | no increase | 1.32 fold | (5 μM)
5 | O=C(Nc1ccc(-c2ccccn2)cn1)c1ccccc1 [Example 3, N-([2,3′-bipyridin]-6′-yl)benzamide] | 1.42 fold | 1.68 fold | (5 μM)
6 | O=C(Nc1ncc(-c2ccccn2)cn1)c1ccccc1 [Example 48, N-(5-(pyridin-2-yl)pyrimidin-2-yl)benzamide] | 1.45 fold | 1.58 fold | (2.5 μM)
7 | O=C(Nc1ccc(-c2ccccn2)nc1)c1ccc(Cl)cc1 [Example 22, N-([2,2′-bipyridin]-5-yl)-4-chlorobenzamide] | 1.20 fold | 1.64 fold | (0.5 μM)
8 | CN(C)CCOc1cnc(-c2ccccn2)cn1 [Example 136, N,N-dimethyl-2-((5-(pyridin-2-yl)pyrazin-2-yl)oxy)ethan-1-amine] | no increase | no increase | –
9 | CN(C)CCOc1ccc(-c2ccccn2)cn1 [Example 94, 2-([2,3′-bipyridin]-6′-yloxy)-N,N-dimethylethan-1-amine] | 1.49 fold | 1.51 fold | (5 μM)
10 | O=C(Nc1ccc(-c2ccccn2)nc1)c1cccc(Cl)c1 [Example 23, N-([2,2′-bipyridin]-5-yl)-3-chlorobenzamide] | 1.45 fold | 1.84 fold | (2.5 μM)
11 | COc1ccc(C(=O)Nc2ccc(-c3ccccn3)nc2)cc1 [Example 21, N-([2,2′-bipyridin]-5-yl)-4-methoxybenzamide] | 1.34 fold | 1.73 fold | (0.5 μM)
12 | O=C(Nc1ccc(-c2ccccn2)nc1)c1ccccc1 [Example 18, N-([2,2′-bipyridin]-5-yl)benzamide] | 1.56 fold | 2.45 fold | (1 μM)

— patent US11377436B2, “EAAT2 enhancing molecules” (THE BRIGHAM AND WOMEN'S HOSPITAL, INC., priority 2017, dated 2022)
